Measured values reported in the METLIN SMRT retention time set (Domingo-Almenara et al. 2019).

Assay: gradient 5% acetonitrile 3 min, to 50% in 2 min, to 85% in 15 min, held 3 min, 100 µL/min
Settings: column: Zorbax Extend-C18 2.1 x 50 mm; eluents: water / acetonitrile, 0.1% formic acid
In short: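 The system's dead and dwell volumes were 40 μL and 900 μL, with a Zorbax Extend-C18 column (2.1 × 50 mm, 1.8 μm) run at 100 μL/min in water and acetonitrile containing 0.1% formic acid each. Pure standards were analyzed in mixtures of ~100 molecules by HPLC–quadrupole time-of-flight mass spectrometry in positive and negative ionization mode. Retention time was assigned from computationally picked, manually inspected adduct peaks.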

| Structure (SMILES) | RP-LC retention time [s] |
| --- | --- |
| O=C(Nc1ccc(OCc2nnc(-c3ccccc3)o2)cc1)C1COc2ccccc2O1 (configuration not stated) | 984 |
| Cc1[nH]c2ccccc2c1C(=O)C(=O)NCC1COc2ccccc2O1 (configuration not stated) | 832 |
| O=C(Cn1c(=O)c(S(=O)(=O)c2ccccc2)cc2ccccc21)NC1CCCC1 | 840 |
| CCOC(=O)c1ccc(NC(=O)CSc2ccc(N3CCCC(C(=O)NC4CC4)C3)nn2)cc1 (configuration not stated) | 678 |
| CCCn1nnc(NCc2ccc(-c3ccc(Br)cc3Br)o2)n1 | 1230 |
| Cc1cccc(OCC(=O)N2CCc3cc(-c4ccno4)ccc32)c1 | 974 |
| CCOC(=O)c1oc2ccc(S(=O)(=O)N3CCCCCCNC(=O)[C@@H]4CCC[C@@H]43)cc2c1C | 1060 |
| Cc1c(Cl)cccc1NC(=O)C1CCN(S(=O)(=O)c2ccc3c(c2)NC(=O)CO3)CC1 | 778 |
| COCc1cn(C2CN(C(=O)c3ccc(C)s3)C2)nn1 | 649 |
| Cc1nn(CCC(=O)NCCCN2CCc3ccccc3C2)c(=O)c2nn(-c3ccccc3)c(C)c12 | 648 |
| CC(C)C(NC(=O)Nc1ccc2c(c1)OCO2)C(=O)N1CCc2ccccc21 (configuration not stated) | 898 |
| COc1ccc(C(F)(F)F)cc1NC(=O)CCCSc1ccc(NC(C)=O)nn1 | 785 |
| COC(=O)c1ccc(NC(=O)Cn2cnc3c(sc4nc(-c5ccccc5)ccc43)c2=O)cc1 | 985 |
| CCOC(=O)c1c(C)[nH]c(CCC(=O)NCc2ccc3c(c2)OCO3)c1C | 738 |
| O=C(NCc1cc(F)ccc1F)C1CCN(c2cncnc2N2CCOCC2)CC1 | 619 |
| Cn1nc(CNC(=O)c2cccc(Cl)c2)c2ccccc21 | 938 |
| Cc1ccc(NC(=O)NCc2ccnc(N3CCSCC3)c2)c(C)c1 | 631 |
| COC(=O)c1c(-c2cccc(Cl)c2)noc1NCc1ccccn1 | 897 |
| COc1ccc(NC(=O)NCCC2CCN(S(=O)(=O)c3ccccc3)CC2)cc1 | 822 |
| Cc1nnc2c(NC(=O)c3ccsc3)cccn12 | 606 |

More lines, now with the values ahead:

| RP-LC retention time [s] | Structure (SMILES) |
| --- | --- |
| 709 | CN1CCn2cc(S(=O)(=O)Nc3cccc(Cl)c3)cc2C1=O |
| 842 | COc1ccccc1OC(C)C(=O)Nc1ccnn1Cc1cccs1 (configuration not stated) |
| 656 | CCc1nnc(NC(=O)CSc2nc3ccccc3[nH]2)s1 |
| 1090 | Cc1nc(C)c(C(=O)N2CCC(Oc3nc4c(C)ccc(C)c4s3)CC2)s1 |
| 856 | Cc1ccccc1Oc1nccn2c(=O)n(CC(=O)Nc3ccccc3)nc12 |
| 874 | CCc1nc(-c2nnn(-c3ccc(F)cc3)c2C)no1 |
| 1080 | Nc1ccccc1C(=O)Nc1ccc(Cl)cc1Cl |
| 692 | O=C(NCc1ccc2c(c1)OCO2)NCc1ccc2c(c1)OCO2 |
| 690 | COc1ccc(-c2nc3cnccn3c2Nc2ccc(OC)c(OC)c2)cc1 |
| 863 | CCS(=O)(=O)Nc1cc(-c2nnc(C(C)C)o2)sc1C |
| 582 | O=C(Cn1ccnc1)N1CCC(OCc2nc(C3CC3)no2)CC1 |
| 930 | COc1cccc(CNC(=O)C2(C)CCN(C(=O)Nc3ccc(C)c(Cl)c3)CC2)c1 |
| 536 | COc1ccc(OC)c(S(=O)(=O)N2CCc3nc(-c4ccccc4)[nH]c3C2)c1 |
| 958 | O=C(NCc1ccc(F)cc1)C1CCN(S(=O)(=O)c2cc(-c3noc(C4CC4)n3)cs2)CC1 |
| 916 | COc1ccc2c(c1)C1CC(C)(O2)N(C)C(=O)C1S(=O)(=O)c1ccccc1 (configuration not stated) |
| 706 | CN(C)c1cccc(-c2nc(-c3ccc4c(c3)nnn4CCN3CCOCC3)no2)c1 |
| 597 | Cc1ccc(C(=O)N2CCC3(CCC3N3CCOCC3)CC2)s1 (configuration not stated) |
